{"source": "patent EP4624482A1", "about": "“PYRIMIDOPYRIMIDINONE COMPOUND AND PHARMACEUTICAL COMPOSITION COMPRISING SAME” (Axceso Biopharma Co., Ltd., priority 2022, dated 2024)", "key": {"[1]": {"test_system": "APP/PS/Tau transgenic mice", "assay": "Intestinal length in AD-induced animal model", "type": "in vivo", "conditions": "1 mg/kg intraperitoneally once every 3 days for 2 weeks", "experimental": "In neurodegenerative diseases (AD and PD), the length of the intestine tends to decrease as the disease progresses, so we looked for changes in intestinal length in an AD-induced animal model.\nAPP/PS/Tau transgenic mice were used as an AD-induced animal model. The compound of formula (1a-1) was administered intraperitoneally once every 3 days at a concentration of 1 mg/kg to 12-week-old transgenic mice for 2 weeks, and the changes in intestinal length of the mice were measured after 1 and 4 weeks."}, "α-synuclein": {"test_system": "α-synuclein", "assay": "α-synuclein expression in rotenone-treated differentiated SH-SY5Y dopaminergic neurons, western blot", "type": "cell-based, human", "conditions": "differentiated dopaminergic neurons treated with rotenone", "experimental": "To analyze the effect on the expression of tyrosine hydroxylase (TH) and α-synuclein as neuron-specific proteins, western blot was performed.\nSH-SY5Y cell line was treated with retinoic acid and 12-O-tetradecanoylphorbol-13-acetate (TPA) to induce differentiation into TH-secreting neurons for 6 days.\nDifferentiated dopaminergic neurons were lysed in PRO-PREP (Intronbio), a cell lysis solution containing protease inhibitor cocktail (Gendepot), and electrophoresed in 10% SDS polyacrylamide gels at 20 µg/well. Transfer was performed using PVDF (Merck millipore) as a membrane, and tyrosine hydroxylase antibody, α-synuclein antibody (Cell signaling), and β-actin antibody (Santa Cruz) were used for reaction for more than 2 hours. Protein expression was detected by staining with ECL substrate (Biorad) for development and graphed using the image J program."}, "C57BL/6 mice": {"test_system": "C57BL/6 mice", "assay": "In vivo permeability of mouse organs after CLP, Evans blue dye", "conditions": "treated at 6 and 16 hours after CLP, Evans blue dye at 18 hours", "experimental": "(§1) Permeability was measured by an in vitro method using cell culture and in vivo method using Evans blue dye. To increase permeability, LPS was used in the in vitro method and CLP treatment was used in the in vivo method.\nTo measure permeability by an in vivo method, the compound of formula (1a-1) was treated at 6 and 16 hours after CLP treatment in the same manner as in Experimental Example 7 above, and 200 µl of a 0.5% Evans blue dye (EBD) solution was administered intravenously at 18 hours, circulated for 1 hour, and organs were harvested to visually confirm the presence of dye. The organs were then homogenized in a homogenizer to extract the dye at 55 °C for 48 hours, and permeability was determined by measuring absorbance at 620 nm."}, "[2]": {"test_system": "dopamine transporter (DAT)", "assay": "Differentiation of pluripotent stem cells into dopaminergic neurons: DAT", "type": "cell-based", "conditions": "western blot of 5-week differentiation sample", "experimental": "Pluripotent stem cells were seeded in AggreWell plates (stemcell) at 5,000 cells/microwell and cultured for 5 days in E6 medium (GIBCO) to induce embryonic body (EB) formation. For neural rosette formation, EBs were seeded into 35 mm dishes in groups of 30 and cultured for 10 days in N2bF medium. The 35 mm dishes were used after being coated with 15 µg/ml of poly-L-ornithine (sigma) and 1 µg/ml of fibronectin (sigma). The N2Bf medium composition was DMEM/F12 (GIBCO), N2 supplement (stemcell) 1×, 10% NEAA (GIBCO), 55 µM betaMercaptoethanol (GIBCO), bFGF (peprotech) 20 ng/ml. For the formation of spherical neural masses (SNMs), rosette masses were sliced and cultured in petri dishes with N2bF medium. SNMs were no larger than 500 µM in size and were sliced and cultured for 3 to 4 passages. After subculture of SNM, the clumps were broken into small pieces using a tungsten mesh (Nilaco) for the neural progenitor cell (NPC) culture step, and then attached to a PLO/FN-coated dish and cultured in N2bF medium. To differentiate NPCs into dopaminergic neurons, the medium was replaced with an ITS-B27 medium after 2 days of NPC culture. […]\nThe effect of the compound of formula (1a-1) on differentiation into neurons was evaluated by comparing the expression of tyrosine hydroxylase (TH) and dopamine transporter (DAT) depending on the presence or absence of treatment with the compound of formula (1a-1)."}, "SH-SY5Y cell lines": {"test_system": "SH-SY5Y cell lines", "assay": "Proliferation of SH-SY5Y cells (Parkinson's disease cell model), EZ-cytox", "type": "cell-based, human", "conditions": "5 days", "experimental": "A medium containing DMEM/F12 (Hyclone), 10% FBS (Hyclone), and 1% penicillin-streptomycin (Hyclone) was used, and the medium was replaced every two days after seeding on a T75 plate. Subculture was performed when the cell density was 80-90%.\nThen, to determine the neuronal proliferation effect, the subcultured SH-SY5Y cells were seeded in 96 wells at 5 × 10^3 cells/well. After 1 day, the medium was replaced with a 5% FBS ratio, and the cells were treated with the compound of formula (1a-1) at concentrations serially diluted 2-fold from 500 nM to 15.6 nM and cultured for 5 days. The medium was replaced with 10% FBS containing the drug every other day. The culture medium with 10% FBS was used as a control. After 5 days, the amount of living cells was measured at 450 nm absorbance using EZ-cytox (DoGen) to compare the cell viability."}, "[3]": {"test_system": "MYSEC (murine yolk sac endothelial cell) cell lines", "assay": "In vitro permeability of LPS-treated MYSEC cells (transwell, streptavidin-HRP)", "type": "cell-based", "experimental": "as §1\nTo measure permeability by an in vitro method, MYSEC (murine yolk sac endothelial cell) cell lines were used. MYSEC cell lines were placed in the top chamber of a trans well at 2.5×10^5 cells/well and treated with 300 ng of lipopolysaccharide (LPS) derived from Gram-negative bacteria in the presence of the compound of formula (1a-1) for 24 hours. The medium in the top chamber was replaced with 300 µl of serum-free medium containing 5 µl of streptoavidin-HRP. After 5 minutes, 20 µl of the medium in the lower chamber was taken and the activity of HRP was measured as absorbance at 450 nm.\nTo determine the mechanism by which the compound of formula (1a-1) improves permeability, the same experiment was performed by knocking down the SIRT1 protein in the MYSEC cell line."}}}
{"molecule": "CCCCCCCCCCCCCC[C@H]1OP(=O)(O)O[C@H]1[C@@H](N)CO.Cl", "note": "[formula (1a-1), (4S,5R)-4-((S)-1-amino-2-hydroxyethyl)-2-hydroxy-5-tetradecyl-1,3,2-dioxaphosphoran-2-oxide hydrochloride]", "values": [{"measurement": "length of the intestine at 4 weeks (6W) compared to 1 week (3W) after administration", "setting": "[1]", "value": "longer"}, {"measurement": "intestinal length", "setting": "[1]; compared to untreated AD-induced control mice", "value": "increased"}, {"measurement": "expression of α-synuclein increased by rotenone", "setting": "α-synuclein", "value": "decreased"}, {"measurement": "amount of EBD in each organ", "setting": "C57BL/6 mice", "value": "returns to normal"}, {"measurement": "DAT glycosylation", "setting": "[2]", "value": "increased"}, {"measurement": "proliferation of nerve cells", "setting": "SH-SY5Y cell lines; 15.6 nM to 500 nM", "value": "increases with increasing concentrations"}, {"measurement": "concentration of maximum proliferative potency", "setting": "SH-SY5Y cell lines", "value": "~100", "unit": "nM"}, {"measurement": "effect on LPS-induced permeability after knockdown of the SIRT1 protein", "setting": "[3]; MYSEC cell line with SIRT1 knockdown, LPS", "value": "does not show the effect"}, {"measurement": "LPS-induced increased permeability", "setting": "[3]; MYSEC cell line, 300 ng LPS, 24 hours", "value": "restores the LPS-induced increased permeability to normal"}]}
